# Several values for one entry are separate records, joined by “and”; a condition that tells them apart may be missing. Equal values may be shown once. Entries after “also recorded” stand apart in the source; their conditions may differ.
# What was measured:
# [1] = Phase 2a study, safety (adverse events); details: for Candida infection: patients with at least one event: BID, N = 23
# [2] = Phase 2a study, plasma pharmacokinetics; type: in vivo, human
# Method: (§1) PK blood draws assessed systemic exposure.
# (§2) The topical formulation was applied topically twice per day, approximately 8 to 12 hours apart. Up to 8 mL, 1 mL at a time, is applied to an identified AD target area of the subject and rubbed into said area by the subject to achieve a thin film on the skin. Less than 8 mL may be used if less is required to fully cover the identified AD target area. Subjects document symptoms of AD, such as itching, on a daily basis. Subjects were asked to abstain from washing the treated area within 6 hours after application, minimize sun exposure, refrain from using moisturizers, emollients, and sunscreen on the treatment areas, and refrain from activities that would cause profuse sweating (e.g., exercise) for a period of 6 hours after each application. The study ran 4 weeks. On days 1, 8, and 15, a pharmacokinetic sample (e.g., blood) was collected from each subject about 2 hours after application of the topical formulation. On day 28, the following pharmacokinetic samples were collected: • Subgroup 1: One sample before application and one sample at 0.5 to 2.5 hours post application • Subgroup 2: One sample at 2.5 to 5 hours post application and one sample at least 2 hours later • Subgroup 3: One sample at 5 to 8 hours post application and one sample at least 2 hours later (prior to the subsequent application)
# [3] = in vivo
# [4] = system: moderate or severe atopic dermatitis; experiment: Phase 2a study, efficacy (EASI/mEASI, PP-NRS); type: in vivo, human
# Source text: as §1
# Fifty (50) subjects, aged 18-65 years, male and female were selected to use either a topical formulation comprising 2% w/w Compound I or a placebo. Pertinent inclusion criteria for the study included: (i) a diagnosis of atopic dermatitis (AD) fulfilled the specified diagnostic criteria of Hanifin and Rajka (Hanifin J M, Rajka G. Diagnostic features of atopic dermatitis. Acta Derm Venereol. Suppl 1980; 92: 44-7, which is hereby incorporated by reference in its entirety); (ii) a 6-month history of AD; (iii) no significant AD flares for 4 weeks prior; (iv) at least 1 lesion measuring […], but not located on the hands, feet, or genitalia; (v) a stable diagnosis of moderate or severe (Investigator's Global Assessment (IGA) score of 3 or 4); (vi) Eczema Area and Severity Index (EASI) score of ≤48; and (vii) have AD affecting 3% to 20% of Body Surface Area (BSA) (not including head, […], soles of feet, groin, and genitalia).
# The 50 subjects were randomized into 2% Compound I treatment (n=23) and vehicle treatment (n=25) groups. Two of the subjects were randomized but not treated. Of the allocated subjects, 91% (n=21) of the Compound I treatment group and 72% (n=18) completed the study. The demographics and baseline characteristics of the study subjects is provided below in Table 3.
# as §2
# On each of these days 1, 8, 15, and 28, symptoms of AD in each subject were evaluated by EASI score, IGA, PP-NRS, and BSA. Primary efficacy of treatment was measured by a percent change from baseline EASI (EASI at day 1) to EASI at day 28.
# Further measurements of efficacy included percent change in EASI between each of days 1, 8, 15, and 28 as well as change from baseline and/or prior evaluation of IGA, AD BSA, and PP-NRS on days 8, 15, and 28; percent of subjects achieving IGA scores of 0 to 1 combined with an improvement of 2 or more points from baseline by day 28; proportion of subjects who achieve 50%, 75%, and 90% improvement in EASI score (compared to baseline).
# The primary efficacy endpoint of this trial was the percent change from baseline in the Eczema Area and Severity Index (EASI) score at week 4.
smiles,measurement,setting,value
"CCOC(=O)c1cnc2[nH]ccc2c1N[C@@H]1CCCN(C(=O)CC#N)C1 [Compound I, ethyl (R)-4-((1-(2-cyanoacetyl)piperidin-3-yl)amino)-1H-pyrrolo[2,3-b]pyridine-5-carboxylate]",Deaths / serious adverse events,[1]; 4 weeks BID,No deaths or SAEs were reported; also recorded: No serious adverse events were reported
same,Candida infection: patients with at least one event,[1]; Mild,0
same,Candida infection: patients with at least one event,[1]; Moderate,1 (4.3)
same,Candida infection: patients with at least one event,[1]; Severe,0
same,Mean drug levels in plasma relative to IC50,"[2]; 2% BID topical, 4 weeks",≤ 5 % of the IC50
same,Plasma samples with Compound I levels below the lower limit of quantitation of 0.1 ng/mL,"[2]; 4-week topical treatment, 2% BID",Greater than 86%
same,Plasma samples with concentration of the active compound below 1 ng/ml,"[2]; 4-week topical treatment, treatment arm",greater than 86%
same,Average plasma concentration,"[2]; Day 1, 2 hr post dose",1.604 ng/mL
same,Average plasma concentration,"[2]; Day 8, 2 hr post dose",0.519 ng/mL
same,Average plasma concentration,"[2]; Day 28, pre dose",0.328 ng/mL
same,All plasma concentrations relative to IC50,"[2]; IC50=36 ng/mL, 2% BID topical",less than half of the IC50
same,Plasma Compound I CONC,"[2]; subject 004-0002, Day 1, hour 0 Predose, LLOQ 0.100",<LLOQ
same,Plasma Compound I CONC,"[2]; subject 004-0002, Day 1, hour 2, LLOQ 0.100",<LLOQ
same,Plasma Compound I CONC,"[2]; subject 004-0002, Day 8, hour 2",0.229 ng/mL
same,Plasma Compound I CONC,"[2]; subject 004-0002, Day 15, hour 2, LLOQ 0.100",<LLOQ
same,Plasma Compound I CONC,"[2]; subject 004-0002, Day 28/ET, 0.5-2.5 hr",0.168 ng/mL
same,Plasma Compound I CONC,"[2]; subject 004-0002, Day 28/ET, hour 0 Predose",0.165 ng/mL
same,Plasma Compound I CONC,"[2]; subject 004-0004, Day 1, hour 0 Predose, LLOQ 0.100",<LLOQ
same,Plasma Compound I CONC,"[2]; subject 004-0004, Day 1, hour 2, LLOQ 0.100",<LLOQ
same,Plasma Compound I CONC,"[2]; subject 004-0004, Day 8, hour 0 Predose, LLOQ 0.100",<LLOQ
same,Plasma Compound I CONC,"[2]; subject 004-0004, Day 8, hour 2, LLOQ 0.100",<LLOQ
same,Plasma Compound I CONC,"[2]; subject 004-0004, Day 15, hour 2, LLOQ 0.100",<LLOQ
same,Plasma Compound I CONC,"[2]; subject 004-0004, Day 28/ET, 5-8 hr, LLOQ 0.100",<LLOQ
same,Plasma Compound I CONC,"[2]; subject 004-0004, Day 28/ET, 7-10 hr",0.104 ng/mL
same,Plasma Compound I CONC,"[2]; subject 004-0008, Day 1, hour 2",1.62 ng/mL
same,Plasma Compound I CONC,"[2]; subject 004-0008, Day 8, hour 0 Predose",0.616 ng/mL
same,Plasma Compound I CONC,"[2]; subject 004-0008, Day 8, hour 2",0.639 ng/mL
same,Plasma Compound I CONC,"[2]; subject 004-0008, Day 15, hour 0 Predose",0.740 ng/mL
same,Plasma Compound I CONC,"[2]; subject 004-0008, Day 15, hour 2",0.512 ng/mL
same,Plasma Compound I CONC,"[2]; subject 004-0008, Day 28/ET, 2.5-5 hr",0.543 ng/mL
same,Plasma Compound I CONC,"[2]; subject 004-0008, Day 28/ET, 4.5-7 hr",0.441 ng/mL
same,Plasma Compound I CONC,"[2]; subject 012-0001, Day 1, hour 0 Predose, LLOQ 0.100",<LLOQ
same,Plasma Compound I CONC,"[2]; subject 012-0001, Day 1, hour 2",14.9 ng/mL
same,Plasma Compound I CONC,"[2]; subject 012-0001, Day 8, hour 2",1.50 ng/mL
same,Plasma Compound I CONC,"[2]; subject 012-0001, Day 15, hour 0 Predose",0.521 ng/mL
same,Plasma Compound I CONC,"[2]; subject 012-0001, Day 15, hour 2",1.05 ng/mL
same,Plasma Compound I CONC,"[2]; subject 012-0001, Day 28/ET, 0.5-2.5 hr",3.71 ng/mL
same,Plasma Compound I CONC,"[2]; subject 012-0001, Day 28/ET, hour 0 Predose",1.23 ng/mL
same,Plasma Compound I CONC,"[2]; subject 012-0017, Day 1, hour 0 Predose, LLOQ 0.100",<LLOQ
same,Plasma Compound I CONC,"[2]; subject 012-0017, Day 1, hour 2",2.45 ng/mL
same,Plasma Compound I CONC,"[2]; subject 012-0017, Day 8, hour 0 Predose",0.845 ng/mL
same,Plasma Compound I CONC,"[2]; subject 012-0017, Day 8, hour 2",0.459 ng/mL
same,Plasma Compound I CONC,"[2]; subject 012-0017, Day 15, hour 0 Predose",11.1 ng/mL
same,Plasma Compound I CONC,"[2]; subject 012-0017, Day 15, hour 2",5.26 ng/mL
same,Plasma Compound I CONC,"[2]; subject 012-0017, Day 28/ET, 5-8 hr",0.536 ng/mL
same,Plasma Compound I CONC,"[2]; subject 012-0017, Day 28/ET, 7-10 hr",0.704 ng/mL
same,Plasma Compound I CONC,"[2]; subject 13-0001, Day 1, hour 0 Predose, LLOQ 0.100",<LLOQ
same,Plasma Compound I CONC,"[2]; subject 13-0001, Day 1, hour 2",12.9 ng/mL
same,Plasma Compound I CONC,"[2]; subject 13-0001, Day 8, hour 0 Predose",0.914 ng/mL
same,Plasma Compound I CONC,"[2]; subject 13-0001, Day 8, hour 2",1.79 ng/mL
same,Plasma Compound I CONC,"[2]; subject 13-0001, Day 15, hour 2",1.86 ng/mL
same,Plasma Compound I CONC,"[2]; subject 13-0001, Day 28/ET, 0.5-2.5 hr",3.99 ng/mL
same,Plasma Compound I CONC,"[2]; subject 13-0001, Day 28/ET, hour 0 Predose",0.530 ng/mL
same,Highest plasma concentration in any subject,[2]; whole study,≤ 15 ng/mL
same,Samples with plasma concentrations > 1/10th the IC50,[2]; whole study,6 total samples
same,Subjects with plasma concentrations > 1/10th the IC50,[2]; whole study,3 subjects
same,Application site irritation: patients with at least one event,[3]; human,0
same,Oropharyngeal pain: patients with at least one event,[3]; human,0
same,Pharyngitis streptococcal: patients with at least one event,[3]; human,0
same,Rash: patients with at least one event,[3]; human,0
same,SARS-CoV-2 test positive: patients with at least one event,[3]; human,0
same,Sinus congestion: patients with at least one event,[3]; human,0
same,Skin fragility: patients with at least one event,[3]; human,0
same,Somnolence: patients with at least one event,[3]; human,0
same,COVID-19: patients with at least one event,"[3]; human, 4 weeks",0
same,"Related TEAE, last figure of the cell (number of events)","[3]; human, 4 weeks",1
same,"Severe TEAE, last figure of the cell (number of events)","[3]; human, 4 weeks",2
same,Subjects reporting AEs,"[3]; human, 4 weeks",9/23
same,Subjects with at least one SAE,"[3]; human, 4 weeks",0
same,Subjects with at least one TEAE leading to discontinuation of study drug,"[3]; human, 4 weeks",0
same,"Subjects with at least one TEAE, number (percent)","[3]; human, 4 weeks",9 (39.1)
same,"Subjects with at least one related TEAE, number (percent)","[3]; human, 4 weeks",1 (4.3)
same,"Subjects with at least one severe TEAE, number (percent)","[3]; human, 4 weeks",2 (8.7)
same,"TEAE, last figure of the cell (number of events, agrees with Table 7)","[3]; human, 4 weeks",16
same,Severe adverse events,[3],Two unrelated severe events (AF and elevated CPK)
same,Thrombosis,[3],no reports of thrombosis
same,Tolerability,[3],generally well tolerated
same,Mean decrease in PP-NRS score relative to baseline,"[4]; after one week, 2% BID",1.72
same,Patients achieving 50% improvement in EASI score (EASI 50),"[4]; end of week 1 (day 8), 2% BID",34.8%
same,Patients achieving 75% improvement in EASI score (EASI 75),"[4]; end of week 1 (day 8), 2% BID",13.0%
same,Patients achieving 90% improvement in EASI score (EASI 90),"[4]; end of week 1 (day 8), 2% BID",4.3%
same,Patients achieving 50% improvement in EASI score (EASI 50),"[4]; end of week 2 (day 15), 2% BID",69.6%
same,Patients achieving 75% improvement in EASI score (EASI 75),"[4]; end of week 2 (day 15), 2% BID",21.7%
same,Patients achieving 90% improvement in EASI score (EASI 90),"[4]; end of week 2 (day 15), 2% BID",8.7%
same,Patients achieving 50% improvement in EASI score (EASI 50),"[4]; end of week 4 (day 28), 2% BID",91.3%
same,Patients achieving 75% improvement in EASI score (EASI 75),"[4]; end of week 4 (day 28), 2% BID",65.2%
same,Patients achieving 90% improvement in EASI score (EASI 90),"[4]; end of week 4 (day 28), 2% BID",30.4%
same,Reduction in mean mEASI score from baseline,"[4]; week 4 (day 28), 2.0% topical solution BID, FAS N=23, primary endpoint",74.4% and 74.5%

# Reference: US20240139170A1, “TOPICAL FORMULATIONS OF A JAK 1/3 INHIBITOR AND METHODS OF USE THEREOF FOR TREATMENT OF ATOPIC DERMATITIS AND OTHER SKIN CONDITIONS” (ACLARIS THERAPEUTICS, INC., priority 2021, published 2024)
